Experimental data published in patent US20090246134A1, “COMPOSITIONS AND METHODS FOR MODULATING GATED ION CHANNELS” (PainCeptor Pharma Corporation, priority 2007, published 2009).

Tests used:
[1] = biological target: T1, ASIC1a (Homo sapiens, UniProt P78348); test: Calcium-imaging (calcium mobilization, FLIPR) assay in ASIC1a expressing HEK293 cells; format: cell-based; design: host or cells: HEK293; settings: n=3-7, compounds not radiolabelled
T1 sequence (P78348 1-528): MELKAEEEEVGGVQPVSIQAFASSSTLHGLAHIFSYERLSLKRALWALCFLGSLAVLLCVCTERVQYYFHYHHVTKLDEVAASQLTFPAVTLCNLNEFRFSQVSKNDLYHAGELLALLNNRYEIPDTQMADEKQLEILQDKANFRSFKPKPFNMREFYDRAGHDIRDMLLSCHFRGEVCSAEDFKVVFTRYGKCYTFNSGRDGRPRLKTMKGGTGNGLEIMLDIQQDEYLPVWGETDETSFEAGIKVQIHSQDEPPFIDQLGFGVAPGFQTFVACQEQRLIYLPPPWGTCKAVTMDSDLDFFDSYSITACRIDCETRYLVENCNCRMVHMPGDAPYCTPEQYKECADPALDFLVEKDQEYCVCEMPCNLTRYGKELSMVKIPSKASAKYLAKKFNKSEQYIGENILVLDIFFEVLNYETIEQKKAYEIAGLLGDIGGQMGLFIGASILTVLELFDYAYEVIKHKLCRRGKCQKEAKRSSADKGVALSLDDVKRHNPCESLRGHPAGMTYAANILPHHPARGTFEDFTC
Experimental: ASIC1a expressing HEK293 cells are grown in culture medium (DMEM with 10% FBS), in polystyrene culture flasks ([…]) at 37° C. in a humidified atmosphere of 5% CO2. Confluency of cells should be 80-90% on day of plating. Cells are rinsed with 10 ml of PBS and re-suspended by addition of culture medium and trituration with a 25 ml pipette.
The cells are seeded at a density of approximately 1×10^6 cells/ml (100 μl/well) in black-walled, clear bottom, 96-well plates pre-treated with 10 mg/l poly-D-lysin (75 μl/well for ≧30 min). Plated cells were allowed to proliferate for 24 h before loading with dye.
Fluo-4/AM (1 mg, Molecular Probes) is dissolved in 912 μl DMSO. The Fluo-4/AM stock solution (1 mM) is diluted with culture medium to a final concentration of 2 μM (loading solution).
The culture medium is aspirated from the wells, and 50 μl of the Fluo-4/AM loading solution is added to each well. The cells are incubated at 37° C. for 30 min.
After the loading period, the loading solution is aspirated and the cells are washed twice with 100 μl modified Assay Buffer (145 mM NaCl, 5 mM KCl, 5 mM CaCl2, 1 mM MgCl2, 10 mM HEPES, pH 7.4) to remove extracellular dye. Following the second wash, 100 μl modified Assay Buffer is added to each well and the fluorescence is measured in FLIPR™ or FlexStation™ (Molecular Devices, USA), or any other suitable equipment known to the skilled in the art.
Temperature: Room temperature (20-22° C.)
First addition: 50 μl test solution at a rate of 30 μl/sec and a starting height of […]
Second addition: 50 μl MES solution (20 mM, 5 mM final concentration) at a rate of 35 μl/sec and a starting height of 150 μl.
Reading intervals: pre-incubation—10 sec×7 and 3 sec×3 antagonist phase—3 sec×17 and 10 sec×12
Addition plates (compound test plate and MES plate) are placed on the right and left positions in the FLIPR tray, respectively. Cell plates are placed in the middle position and the ASIC1a program is effectuated. FLIPR will then take the appropriate measurements in accordance with the interval settings above. Fluorescence obtained after stimulation is corrected for the mean basal fluorescence (in modified Assay Buffer).
The MES-induced peak calcium response, in the presence of test substance, is expressed relatively to the MES response alone. Test substances that block the MES-induced calcium response are re-tested in triplicates. Confirmed hits are picked for further characterization by performing full dose-response curves to determine potency of each hit compound as represented by the IC50 values (i.e., the concentration of the test substance which inhibits 50% of the MES-induced calcium response).
It is noted that the compounds below are not radiolabelled.

[2] = tested on: native sensory-neuron gated ion channels; test: Patch-clamp electrophysiology of sensory neurons in primary culture; format: cell-based, rat; settings: n=3
Source text: This example describes another in vitro assessment of the inhibitory activity of the compounds of the present invention utilizing patch-clamp electrophysiology of sensory neurons in primary culture.
Sensory neurons can be isolated and cultured in vitro from different animal species. The most widely used protocols use sensory neurons isolated from neonatal (Eckert, et al. (1997) J Neurosci Methods 77:183-190) and embryonic (Vasko, et al. (1994) J Neurosci 14:4987-4997) rat. […] Electrophysiology is performed similarly as described above in Example 2. In the voltage-clamp mode, trans-membrane currents are recorded. Compounds A and H at 1 μM inhibit the pH 6.5-induced inward current. In the current-clamp mode, change in the trans-membrane potential are recorded. Under acidic conditions (e.g., pH 6.5) the membrane depolarizes, leading to the firing of action potentials. Compounds A and H at 1 μM inhibit the acid-induced membrane depolarization and reduce the ensuing rate of action potential firing.

[3] = Plasma composition analysis, parent compound and metabolites by MS; format: in vivo; settings: rat plasma
Experimental: Rats receive compounds (5 mg/kg) dissolved in HPβCD 15%, dextrose 2.5%, pH 5 by intravenous (i.v). route or (25-30 mg/kg) dissolved in HPβCD 15%, dextrose 2.5%, […] (s.c.) route or (50-150 mg/kg) dissolved in HPβCD 15%, dextrose 2.5%, pH 5 by oral (p.o.) route. After the treatment, approximately 100 μl of blood sample is collected and the accurate bleeding time is recorded for each sample. Each blood sample is collected into Microvette blood collection tube containing anticoagulant lithium heparin. Following collection, the samples are centrifuged at […] for 15 minutes (to avoid haemolysis) and the plasma obtained from each is recovered and stored frozen (at −80° C.) pending analysis. Frozen samples are shipped on dry ice to quantify drug concentration within plasma after extraction procedure as previously described in Example 13.

With COc1ccc(F)cc1-c1cc2c(c3c1CCN(C)C3)NC(=O)C2=NO [Compound A, 5-(5-fluoro-2-methoxyphenyl)-6,7,8,9-tetrahydro-3-(hydroxyimino)-8-methyl-1H-pyrrolo[3,2-h]isoquinoline-2(3H)-one] the IC50 [1] was 700 nM, the acid-induced membrane depolarization ([2]; current-clamp mode, 1 μM) was “inhibit” and the “rate of action potential firing” value ([2]; current-clamp mode, acidic conditions, 1 μM) was “reduce”. For the same compound, the “activity of native sensory-neuron gated ion channels” value [2] was “effectively modulate”, the “pH 6.5-induced inward current” value ([2]; voltage-clamp mode, 1 μM) was “inhibit” and the “Plasma Component: N-desMe or desEt” value ([3]; IV 5 mg/kg) was “Small”. For the same compound, the “Plasma Component: O-desMe” value ([3]; IV 5 mg/kg) was “Trace”, the “Plasma Component: N-desMe or desEt” value ([3]; PO 50 mg/kg) was “Small” and the “Plasma Component: O-desMe” value ([3]; PO 50 mg/kg) was “Trace”.
